In patent US12391646B2, “Using adiponectin receptor agonists to treat inflammation and bone diseases in diabetes” (Trustees of Tufts College, priority 2020, dated 2025):

Experiments:
[1] = tested on: LPS-stimulated RAW 264.7 macrophages; assay: qPCR of cytokine mRNA in LPS-stimulated RAW 264.7 macrophages; assay type: cell-based; settings: for expression of anti-inflammatory cytokine IL-10: LPS-induced macrophages; for IL-10 expression, longer treatments / IL-10 mRNA expression, treatment for 18 h or less: macrophages; for IL-10 expression, longer treatments: longer than 18 h; for IL-10 mRNA expression, treatment for 18 h or less: no LPS
Raw264.7 cells = assay: CCK-8 cytotoxicity assay, 24 hours; assay type: cell-based; settings: at 40 μM or lower concentrations
Procedure: (§1) FIG. 1 Characterization of anti-inflammatory properties of APR-like compounds. (a) Raw264.7 cells were pretreated with APR (20 μM) or new compounds 1 to 10 (5 μM) for 24 h followed by incubation with LPS (100 ng/mL) for an additional 6 h. IL-6 and IL-1β mRNA expression levels were evaluated by qPCR and normalized with GAPDH mRNA level. (b) Raw264.7 cells were pretreated with different doses of AdipoAI for 24 h followed by incubation with LPS (100 ng/mL) for additional 6 h to evaluate dose-dependency of AdipoAI in inhibiting IL-6 and IL-1β mRNA expression levels by qRT-PCR and normalized with GAPDH mRNA level. (c) Evaluation of cytotoxicity of APR, AdipoAI and compound 5 by CCK8 assay in Raw264.7 cells treated for 24 hours. (d) BMMs were pretreated with APR (20 μM), AdipoAI (5 μM) or compound 5 (5 μM) for 24 h followed by incubation with LPS (100 ng/ml) for additional 6 h for the measurement of IL-6 and IL-1β mRNA expression levels by qRT-PCR and normalized with GAPDH mRNA level. Data were expressed as the mean±SEM at five biological independent experiments. One-way ANOVA test for multiple-group comparisons, *P<0.05, significant differences between each indicated group.
Raw264.7 cells were seeded at 2×10^3 cells/well in 96-well plates for 16 hours and then serum-starved for 6 hours. Cells were maintained in DMEM in the presence of different concentrations of APR (AdipoGen Life Sciences, San Diego, CA, USA) and compounds for 24 hours. […] The detailed group assignment is shown in the individual figure legends.

[2] = tested on: LPS-stimulated RAW 264.7 macrophages; assay: qPCR of cytokine mRNA in LPS-stimulated RAW 264.7 macrophages; assay type: cell-based; settings: for expression of proinflammatory cytokines such as IL-6 and IL-1B: LPS-induced macrophages
Procedure: as §1
RAW 264.7 macrophage cell line was purchased from ATCC (Manassas, VA, USA) and maintained in DMEM (Gibco, Life Technologies, Carlsbad, CA, USA) supplemented with 10% (v.v-1) FBS (Gibco, Life Technologies) and 1% (v.v-1) penicillin/streptomycin (Gibco, Life Technologies). The cells were routinely cultured in an incubator at 37° C. in a humidified atmosphere of 5% CO2.
Total RNA of cells was extracted using Quick-RNA Miniprep Kit (ZYMO Research, Irvine, CA, USA) and total RNA from mouse tissues was prepared with TriZol reagent (Life Technologies) according to the manufacturer's instructions followed by qRT-PCR assays as described previously (L. Zhang et al., 2014). 1 μg of total RNA was used for reverse transcription using the M-MLV Reverse Transcriptase (Thermo Scientific, Waltham, MA, USA) according to the manufacturer's protocol using PowerUp SYBR Green Master Mix (Thermo Scientific) on a Bio-Rad iQ5 thermal cycler (Bio-Rad Laboratories, Hercules, CA, USA). Differences in expression were evaluated by the comparative cycle threshold method using GAPDH or β-actin as a control. The primer sequences used for the qRT-PCR experiments are listed in supplemental Table 1.
Macrophages were seeded at a density of 5×10^5 cells/well in 12-well plates. After overnight incubation, the cells were transfected for 24 h with siRNAs targeting specific genes or scrambled control siRNAs using HiPerFect Transfection Reagent (Qiagen, Hilden, Germany) according to the manufacturer's guidelines. Gene silencing efficiency was monitored by qPCR or Western blot analysis. The siRNA duplexes used in this study were chemically synthesized by Thermo Scientific.

[3] = tested on: DIO mice with experimental periodontitis; assay: Experimental periodontitis in DIO mice; assay type: in vivo; settings: for numbers of osteoclasts on alveolar bone (TRAP stain): compared to vehicle-treated DIO mice; for IL-6 and CCL-2 gene expression in periodontal epithelium: compared to vehicle-treated group; for bodyweight / decrease in fasting blood glucose level: two weeks oral gavage, AdipoRon 50 mg/kg, AdipoAI 25 mg/kg, vs vehicle; for average alveolar bone loss at 6 sites (CEJ-ABC distance): two weeks, vehicle 372.3±27.3 μm
Procedure: FIG. 19 AdipoRon and AdipoAI attenuate experimental periodontitis in diet-induced obesity (DIO). (A) Bodyweight of vehicle, AdipoRon and AdipoAI-treated DIO mice with experimental periodontitis. (B) Fasting blood glucose in DIO mice with experimental periodontitis treated with vehicle, AdipoRon and AdipoAI. (C) A representative 3-dimensional model of alveolar bone in DIO mice with experimental periodontitis. […] The distance from ABC to CEJ in four groups is shown in (D) (n≥7). (E) Representative TRAP-stained alveolar bone in DIO mice with experimental periodontitis. Black arrow, osteoclast (scale bar=200 μm). The number of osteoclasts attached to the alveolar bone surface was calculated (F). (G) Relative expression of IL-6 and CCL2 genes in gingival tissue from DIO mice with experimental periodontitis was analyzed using real-time PCR. The animals were treated AdipoRon and AdipoAI or vehicle alone (n≥5).
DIO (C57BL/6J background, Jax #380050) were purchased from the Jackson Laboratory (Bar Harbor, ME, http://www.jax.org/). After acclimatization, animals were fed a high-fat diet (containing 60% kcal from fat, Jackson Laboratory) from 6 weeks of age onwards. Experimental periodontitis was induced in 20-week-old mice by 5-0 silk suture as described previously 26. Briefly, animals were anesthetized using ketamine/xylazine and buprenorphine and the sutures were placed around the maxillary second molar and tied on the palatal side for 2 weeks. The ethical approval of this study was provided by the IACUC of UCSD. The care and use of laboratory animals and Animal Research was performed in accordance with NIH guidelines.
AdipoRon (50 mg/kg body weight)^23, 24 and the AdipoAI (25 mg/kg body weight)^25 were administered by oral gavage concurrently with establishment of experimental periodontitis for 2 weeks.
Gingival tissues from the palatal side were sampled and immediately stored in liquid nitrogen until further analysis. The skulls were scanned by the Bruker Skyscan micro-CT system (Bruker, Kontich, Belgium). Alveolar bone loss, defined as the distance between the cementoenamel junction (CEJ) to the alveolar bone crest (ABC), was measured at six sites (mesio-buccal, mid-buccal, disto-buccal, mesio-palatal, mid-palatal, and disto-palatal) using Ctan software (http://bruker-microct.com/products/downloads.htm) as previously reported^26. Periodontal hard tissue sections were stained with Acid Phosphatase, Leukocyte (TRAP) Kit (Sigma, St. Louis, MO, USA) according to the manufacturer's instructions.
Total RNA was isolated from cell cultures and gingival soft tissues using TriZol reagent (Life Technologies, Carlsbad, CA, USA) according to the manufacturer's instructions^24. Reverse transcription was performed using the PrimeScript RT Master Mix (Takara Bio, Otsu, Japan) and real-time-qPCR analyses were performed using SYBR-Green Real-Time PCR Master Mix (Takara Bio, Otsu, Japan) as described earlier^27.

| SMILES | expression of anti-inflammatory cytokine IL-10 [1] | IL-10 expression, longer treatments [1] | IL-10 mRNA expression, treatment for 18 h or less [1] | cytotoxic effects (CCK-8) (Raw264.7 cells) | expression of proinflammatory cytokines such as IL-6 and IL-1B [2] | numbers of osteoclasts on alveolar bone (TRAP stain) [3] | IL-6 and CCL-2 gene expression in periodontal epithelium [3] | bodyweight [3] | decrease in fasting blood glucose level [3] [%] | average alveolar bone loss at 6 sites (CEJ-ABC distance) [3] [μm] | TNF-α expression levels ([1]; LPS-induced Raw264.7 macrophage, BMMs or PEMs (data not shown)) | dependence of inhibition of proinflammatory cytokine mRNA on AdipoRs and APPLs (siRNA) ([2]; Raw264.7 cells transfected with siRNA) | inhibition of IL-6 and IL1-β mRNA expression ([2]; compounds at 5 μM vs APR at 20 μM, 24 h pretreatment, then LPS 100 ng/mL 6 h) | anti-inflammatory efficacy relative to APR ([2]; in macrophages, estimated) | LPS-stimulated IL-6 and IL-1β mRNA expression, dose-dependency ([2]; increasing concentrations, 24 h, then LPS 100 ng/mL 6 h) |
| --- | --- | --- | --- | --- | --- | --- | --- | --- | --- | --- | --- | --- | --- | --- | --- |
| O=C(COc1ccc(C(=O)c2ccccc2)cc1)NC1CCN(Cc2ccccc2)CC1 [AdipoRon, reference compound] | downregulated expression of the anti-inflammatory cytokine IL-10 | decreased IL-10 expression | increased IL-10 mRNA expression | neither of the 3 small molecules mediated significant cytotoxic effects | inhibited expression of proinflammatory cytokines such as IL-6 and IL-1B | significantly decreased numbers of osteoclasts | significantly attenuated the IL-6 and CCL-2 gene expression | decreased significantly | 73.3 | 344.5±22.2 |  |  |  |  |  |
| COc1ccc(CN2CCC(NC(=O)COc3ccc(C(=O)c4ccc(Cl)cc4)cc3)CC2)cc1 [Compound 3] | downregulated expression of the anti-inflammatory cytokine IL-10 | decreased IL-10 expression | increased IL-10 mRNA expression | neither of the 3 small molecules mediated significant cytotoxic effects | inhibited expression of proinflammatory cytokines such as IL-6 and IL-1B | significantly decreased numbers of osteoclasts | significantly attenuated the IL-6 and CCL-2 gene expression | decreased significantly | 75.3 | 328.5±19.9 | did not inhibit TNF-α expression levels | prevented by AdipoR1 and APPL1 suppression, but not AdipoR2 or APPL2 | stronger inhibitory effects than APR | about 8 times | decreased LPS-stimulated IL-6 and IL-1β mRNA expression in a dose-dependent fashion |
